Where two headings read alike, the source gives them in different places.
Columns and labels:
[1] = target: T1, Yeast proteasome (Saccharomyces cerevisiae, UniProt P30656); test: Proteasome inhibition assay (fluorescence intensity, Suc-Leu-Leu-Val-Tyr-AMC); type: biochemical; conditions: 9 nM yeast proteasome, 5 µM substrate, preincubated 90 min, 22 °C
T1 construct: TUM Groll group (academic supplier)
Procedure: The assay was carried out at room temperature (22 °C) using Corning 4514 black low volume 384-well plates. All measurements were performed in duplicate and the final DMSO concentration was 3.3%. The assay buffer contained 100 mM Tris pH 7.5 and 1 mM MgCl2. (Table 5).
For the positive control, 9.5 µL protein dilution (final concentration 9 nM) were mixed with 0.5 µL of compound dilution ranging from 30–0.015 μM (assay end conc. 1000–0.5 nM). For the selected hits, 9.5 µL protein dilution (final concentration 9 nM) were mixed with 0.5 µL of compound dilution ranging from 1–0.0005 mg/mL (assay end conc. 33–0.016 μg/mL) and preincubated for 90 min. Then, 5 µL substrate mix was added (final concentration 5 µM) and incubated for 60 min. The assay plates were measured in Fluorescence mode on a Tecan M1000 plate reader (ex 380 nm, em 460 nm). The IC50 was calculated using XLfit.
For assay set-up and validation, the tool compound ONX-0914 was utilized. For this tool compound, a dose-dependent decrease in the Fluorescence signal was observed similar to previous results.

[2] = target: T2, FynB wt (Homo sapiens, UniProt P06241); test: FynB kinase inhibition assay (ADP-Glo Kinase Assay); type: biochemical
T2 construct: Crelux construct CTX4, PC09815-1
T2 sequence (P06241 whole entry): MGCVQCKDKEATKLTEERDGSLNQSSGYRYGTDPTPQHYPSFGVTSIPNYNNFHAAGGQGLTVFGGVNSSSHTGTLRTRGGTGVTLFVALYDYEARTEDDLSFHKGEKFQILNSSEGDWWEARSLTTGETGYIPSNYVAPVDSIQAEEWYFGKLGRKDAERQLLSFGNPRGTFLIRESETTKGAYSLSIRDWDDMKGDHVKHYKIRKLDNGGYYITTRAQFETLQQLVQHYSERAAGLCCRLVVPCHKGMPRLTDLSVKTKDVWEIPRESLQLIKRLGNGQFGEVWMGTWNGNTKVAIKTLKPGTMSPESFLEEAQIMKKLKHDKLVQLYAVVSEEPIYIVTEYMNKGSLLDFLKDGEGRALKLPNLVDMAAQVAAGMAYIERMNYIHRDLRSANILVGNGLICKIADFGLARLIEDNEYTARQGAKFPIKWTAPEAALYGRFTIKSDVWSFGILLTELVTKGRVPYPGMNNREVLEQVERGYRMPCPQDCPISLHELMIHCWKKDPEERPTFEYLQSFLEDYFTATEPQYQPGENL
Procedure: The assay buffer contained 20 mM Tris pH 8.0, 170 mM NaCl, and 10 mM MgCl2.
For the selected hits, 9.5 µL protein dilution (final concentration 200 nM) were mixed with 0.5 µL of compound dilution ranging from 1–0.0005 mg/mL (assay end conc. 33–0.016 μg/mL) and preincubated for 90 min.
Then, 5 µL substrate/ATP mix was added (final concentration substrate 10 µM and ATP 100 µM) and the assay was incubated for another 2 h. Afterwards, 5 µL of the 15 µL assay reaction were transferred to new wells and 5 µL ADP Glo Reagent was added to terminate the kinase reaction and deplete the remaining ATP. After 40 min, 10 µL of Kinase Detection Reagent was added to convert ADP to ATP and allow the newly synthesized ATP to be measured using a luciferase/luciferin reaction. After another 40 min, the assay plates were measured in Luminescence mode on a Tecan M1000 plate reader. The light generated, i.e., luminescent signal, is proportional to the ADP concentration produced and is correlated with kinase activity. The IC50 was calculated using XLfit.

[3] = target: T3, CDK7 (Homo sapiens, UniProt P50613); test: CDK7 inhibition assay (ADP-Glo Kinase Assay); type: biochemical; conditions: for IC50: 300 nM CDK7, 30 µM CDKtide, 125 µM ATP, preincubated 120 min, 22 °C
T3 construct: Crelux construct CZY-3, PC09891
T3 sequence (P50613 whole entry, species assumed): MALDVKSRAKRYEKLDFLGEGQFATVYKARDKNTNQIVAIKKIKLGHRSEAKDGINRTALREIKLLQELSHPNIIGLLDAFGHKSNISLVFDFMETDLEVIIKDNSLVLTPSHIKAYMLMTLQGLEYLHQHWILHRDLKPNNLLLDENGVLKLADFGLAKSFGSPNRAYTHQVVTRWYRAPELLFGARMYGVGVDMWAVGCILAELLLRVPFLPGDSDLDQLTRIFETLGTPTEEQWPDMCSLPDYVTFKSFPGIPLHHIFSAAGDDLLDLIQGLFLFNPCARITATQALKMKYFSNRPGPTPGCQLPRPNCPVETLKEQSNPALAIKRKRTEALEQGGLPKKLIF
Procedure: The assay was carried out at room temperature (22 °C) using Corning white low volume 384-well plates. […]. The assay buffer contained 20 mM Hepes pH 7.0, 150 mM NaCl, and 10 mM MgCl2. (Table 4).
For the positive control, 9.5 µL protein dilution (final concentration 300 nM) were mixed with 0.5 µL of compound dilution ranging from 990–0.006 μM (assay end conc. 33–0.0002 μM). For the selected hits, 9.5 µL protein dilution (final concentration 300 nM) were mixed with 0.5 µL of compound dilution ranging from 1–0.0005 mg/mL (assay end conc. 33–0.016 μg/mL) and preincubated for 120 min.
Then, 5 µL substrate/ATP mix was added (final concentration substrate 30 µM and ATP 125 µM) and the assay was incubated for another 2 h. Afterwards, 5 µL of the 15 µL assay reaction were transferred to new wells and 5 μL ADP Glo Reagent was added to terminate the kinase reaction and deplete the remaining ATP. After 40 min, 10 µL of Kinase Detection Reagent was added to convert ADP to ATP and allow the newly synthesized ATP to be measured using a luciferase/luciferin reaction. After another 40 min, the assay plates were measured in Luminescence mode on a Tecan M1000 plate reader.
The light generated, i.e., luminescent signal, is proportional to the ADP concentration produced and is correlated with kinase activity. The IC50 was calculated using XLfit.

[4] = test system: Na+/K+ ATPase; design: method as in doi:10.1016/S0040-4039(00)96493-1; conditions: cited from earlier work
[5] = test system: reverse transcriptase (RT); design: method as in doi:10.1016/S0040-4039(00)96493-1; conditions: cited from earlier work
[6] = 200 nM FynB wt, 10 µM Fyn substrate, 100 µM ATP, preincubated 90 min, 22 °C, read-out: IC50 FynB Kinase Inhibition

IC50 [1] | IC50 [2, 6] | Structure (SMILES) | CDK7 inhibition (in words) [3] | IC50 [3] | Fyn kinase inhibition (in words) [2] | Na+/K+ ATPase inhibitory activity (in words) [4] | reverse transcriptase (RT) inhibitory activity (in words) [5] | IC50 [2]
> 41 µM | > 41 µM | C#CC(O)/C=C/C(O)CCCC(O)CC#CC(O)C#CC(O)CCCC(O)/C=C/CCCCCC(=O)CCCCCCCCCCCCCC(O)C(O)C#CC(=O)O (stereo not shown) [Osirisyne A (4), osirisyne A] | – | – | – | – | – | –
0.26 µM | 18.4 µM | C#CC(O)/C=C/C(O)CCCC(O)CC#CC(O)C#CCCCCC(O)/C=C/CCCCCC(=O)CCCCCCCCCCCCCC(O)C(O)C#CC(=O)O (stereo not shown) [Osirisyne B (5), osirisyne B] | inhibited | 9.13 µM | inhibited | – | – | –
> 40.2 µM | > 40.2 µM | C#CC(O)/C=C/C(O)CCCC(O)CC#CC(O)C#CC(O)CCCC(O)/C=C/CCCCCC(=O)CCCCCCCCCCCCC(O)C(O)C(O)C#CC(=O)O (stereo not shown) [Osirisyne G (1), osirisyne G] | – | – | – | – | – | –
– | – | C#CC(O)/C=C/C(O)CCCC(O)CC#CC(O)C#CCCCCC(O)/C=C/CCCCCC(=O)CCCCCCCCCCCCC(O)C(O)C(O)C#CC(=O)O (stereo not shown) [Osirisyne H (2), osirisyne H] | – | – | – | – | – | > 41 µM
> 41 µM | > 41 µM | C#CC(O)/C=C/C(O)CCCC(O)CC#CC(O)C#CC(O)CCCC(O)/C=C/CCCC(O)/C=C/CCCCCCCCCCCCCC(O)C(O)C#CC(=O)O (stereo not shown) [Osirisyne I (3), osirisyne I] | – | – | – | – | – | –

Structure (SMILES) | IC50 [1] | IC50 [2, 6] | CDK7 inhibition (in words) [3] | IC50 [3] | Fyn kinase inhibition (in words) [2] | Na+/K+ ATPase inhibitory activity (in words) [4] | reverse transcriptase (RT) inhibitory activity (in words) [5] | IC50 [2]
C#CC(O)/C=C/C(O)CCCC(O)CC#CC(O)C#CCCCCC(O)/C=C/CCCC(O)/C=C/CCCCCCCCCCCCCC(O)C(O)C#CC(=O)O (stereo not shown) [Osirisyne E (6), osirisyne E] | > 41.8 µM | > 41.8 µM | inhibited | > 41.8 µM | inhibited | inhibitory activities | inhibitory activities | –
